Results as given in patent US20210268004A1, “COMPOSITION CONTAINING BECLOMETHASONE FOR THE PREVENTION AND THE TREATMENT OF BACTERIAL PROSTATITIS AND VAGINITIS” (SOFAR S.P.A., priority 2018, published 2021).
Like-named read-outs stand apart in the source and are kept apart here.

Assays:
[1] = tested on: colorectal mucosa (epithelial tissue of the human colon reconstructed in 3D); conditions: for recovery %: human
Procedure: The trial was conducted according to the OCSE TG 428-EU approved method used for percutaneous penetration.
Like in the first trial, the test was conducted at 37° C. and relative humidity >90%.
Like in the first phase, the test was conducted at 37° C. and relative humidity >90%.

[2] = rectal treatment; cited from earlier work

SMILES | recovery Total [1] | recovery % ([1]; 24 h, 5 mg/mL) | recovery % ([1]; 48 h, 200 mg/mL) | adverse effects [2]
CCC(=O)OCC(=O)[C@@]1(OC(=O)CC)[C@@H](C)C[C@H]2[C@@H]3CCC4=CC(=O)C=C[C@]4(C)[C@@]3(Cl)[C@@H](O)C[C@@]21C [BDP B, beclomethasone dipropionate] | 133.53 | 89% |  | 
CCC(=O)OCC(=O)[C@@]1(OC(=O)CC)[C@@H](C)C[C@H]2[C@@H]3CCC4=CC(=O)C=C[C@]4(C)[C@@]3(Cl)[C@@H](O)C[C@@]21C [BDP C, beclomethasone dipropionate] | 112.53 | 75% |  | 
CCC(=O)OCC(=O)[C@@]1(OC(=O)CC)[C@@H](C)C[C@H]2[C@@H]3CCC4=CC(=O)C=C[C@]4(C)[C@@]3(Cl)[C@@H](O)C[C@@]21C [BDP, beclomethasone dipropionate] |  |  |  | almost without the adverse effects typical of steroids

More lines, main results first:

recovery Total [1] | recovery % ([1]; 24 h, 5 mg/mL) | recovery % ([1]; 48 h, 200 mg/mL) | SMILES | adverse effects [2]
149.81 | 200% |  | CCC(=O)OCC(=O)[C@@]1(OC(=O)CC)[C@@H](C)C[C@H]2[C@@H]3CCC4=CC(=O)C=C[C@]4(C)[C@@]3(Cl)[C@@H](O)C[C@@]21C [BDP A, beclomethasone dipropionate] | 
1339.30 |  | 22% | CCC(=O)OCC(=O)[C@@]1(OC(=O)CC)[C@@H](C)C[C@H]2[C@@H]3CCC4=CC(=O)C=C[C@]4(C)[C@@]3(Cl)[C@@H](O)C[C@@]21C [BDP D, beclomethasone dipropionate] | 
